The results in this text go back to ChEMBL document CHEMBL4052619, “First example of peptides targeting the dimer interface of Leishmania infantum trypanothione reductase with potent in vitro antileishmanial activity” (Eur J Med Chem, 2017).

Data set [1] has as its system Leishmania infantum. The experiment in a line: Antileishmanial activity against Leishmania infantum axenic amastigotes assessed as induction of cell death after 24 hrs by propidium iodide staining based flow cytometry. The data set is classed as functional.
Data set [2] is described as follows: Cytotoxicity against human THP1 cells assessed as induction of cell death after 24 hrs by propidium iodide staining based flow cytometry. To be noted: THP-1 cells, read-out: LC50.
The subject of data set [3] is Leishmania infantum. The experiment in a line: Antileishmanial activity against Leishmania infantum MCAN/ES/89/IPZ229/1/89 promastigotes assessed as induction of cell death after 24 hrs by propidium iodide staining based flow cytometry. The data set is classed as functional. The conditions noted are these: MCAN/ES/89/IPZ229/1/89, 24 h.
The subject of data set [4] is Leishmania infantum. The experiment in a line: Antileishmanial activity against Leishmania infantum axenic amastigotes assessed as induction of cell death at 25 uM after 24 hrs by propidium iodide staining based flow cytometry. The data set is classed as functional.
For data set [5], the target named is Trypanothione reductase (Leishmania infantum, UniProt A4HSF7). The experiment in a line: Inhibition of recombinant Leishmania infantum TryR preincubated for 10 mins followed by T[S]2 substrate addition and measured after 1 hr in presence of NADPH.
Sequence of Trypanothione reductase (A4HSF7 whole entry): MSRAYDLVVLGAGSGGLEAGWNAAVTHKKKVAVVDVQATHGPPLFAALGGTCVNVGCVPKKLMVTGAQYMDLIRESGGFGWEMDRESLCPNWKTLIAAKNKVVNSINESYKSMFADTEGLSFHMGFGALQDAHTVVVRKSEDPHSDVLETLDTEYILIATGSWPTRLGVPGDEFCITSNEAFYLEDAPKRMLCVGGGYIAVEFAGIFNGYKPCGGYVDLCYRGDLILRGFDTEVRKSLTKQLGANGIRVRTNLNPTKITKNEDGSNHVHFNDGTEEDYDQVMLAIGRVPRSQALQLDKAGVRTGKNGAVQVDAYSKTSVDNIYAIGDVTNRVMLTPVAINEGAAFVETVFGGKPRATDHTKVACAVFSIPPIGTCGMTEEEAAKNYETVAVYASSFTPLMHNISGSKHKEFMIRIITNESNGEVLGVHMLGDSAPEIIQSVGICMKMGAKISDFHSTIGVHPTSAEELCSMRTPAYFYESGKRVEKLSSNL
The subject of data set [6] is Leishmania infantum. The experiment in a line: Antileishmanial activity against Leishmania infantum MCAN/ES/89/IPZ229/1/89 promastigotes assessed as induction of cell death at 25 uM after 24 hrs by propidium iodide staining based flow cytometry. The data set is classed as functional.

pIC50: −log10 of the molar value. The source made the active and inactive calls. The calls are words filed in the database; no cut-off is given here. Square brackets hold non-standard residues; d marks the D form. Peptide text beside a SMILES is read from it. ξ: configuration not given here. ξNle = CCCCC(N)C(=O)O

On to `CC(=O)N[C@@H](CCCNC(=N)N)C(=O)N[C@@H](CCCNC(=N)N)C(=O)N[C@@H](CCCNC(=N)N)C(=O)N[C@@H](CCCNC(=N)N)C(=O)N[C@@H](CCCNC(=N)N)C(=O)N[C@@H](CCCNC(=N)N)C(=O)N[C@@H](CCCNC(=N)N)C(=O)N[C@@H](CCCNC(=N)N)C(=O)N[C@@H](CCCNC(=N)N)C(N)=O`, for which the LC50 in data set [1] and in data set [3] was more than 25 µM each time. In data set [2], the CC50 at 24 h is more than 25 µM.

Regarding `CCCCC(NC(=O)[C@H](CCCCN)NC(=O)C(CCCC)NC(=O)[C@H](CO)NC(=O)[C@@H](NC(=O)CNC(=O)[C@@H](NC(=O)[C@H](CO)NC(=O)[C@H](CCC(N)=O)NC(=O)[C@@H](NC(=O)[C@@H](NC(=O)[C@H](CCCCN)NC(=O)[C@@H]1CCCN1C(C)=O)[C@@H](C)CC)[C@@H](C)CC)C(C)C)[C@@H](C)CC)C(=O)N[C@@H](CCCNC(=N)N)C(=O)N[C@@H](CCCNC(=N)N)C(=O)N[C@@H](CCCNC(=N)N)C(=O)N[C@@H](CCCNC(=N)N)C(=O)N[C@@H](CCCNC(=N)N)C(=O)N[C@@H](CCCNC(=N)N)C(=O)N[C@@H](CCCNC(=N)N)C(=O)N[C@@H](CCCNC(=N)N)C(=O)N[C@@H](CCCNC(=N)N)C(N)=O` (some centres undefined), the results for the LC50 in data set [1] and in data set [3] were 2.1 µM and 4.4 µM, respectively. In data set [2], the CC50 at 24 h turned out to be 0.8 µM.

Turning to `CCCCC(NC(=O)[C@H](CCCCN)NC(=O)C(CCCC)NC(=O)[C@H](CO)NC(=O)[C@@H](NC(=O)[C@H](CCC(=O)O)NC(=O)[C@@H](NC(=O)[C@H](CO)NC(=O)[C@H](CCC(N)=O)NC(=O)[C@@H](NC(=O)[C@@H](NC(=O)[C@H](CCCCN)NC(=O)[C@@H]1CCCN1C(C)=O)[C@@H](C)CC)[C@@H](C)CC)C(C)C)[C@@H](C)CC)C(N)=O` (some centres undefined), the outcome in data set [4] and in data set [6] was inactive. In addition, the pIC50 in data set [5] was less than 4.12.

As for `CCCCC(NC(=O)[C@H](CCCCN)NC(=O)C(CCCC)NC(=O)[C@H](CO)NC(=O)[C@@H](NC(=O)CNC(=O)[C@H](CCCCN)NC(=O)[C@H](CO)NC(=O)[C@H](CCC(N)=O)NC(=O)[C@@H](NC(=O)[C@H](CCC(=O)O)NC(=O)[C@H](CCCCN)NC(=O)[C@@H]1CCCN1C(C)=O)[C@@H](C)CC)[C@@H](C)CC)C(N)=O` (some centres undefined) (Ac-PKEIQSKGIS[ξNle]K[ξNle]-NH2), the result in data set [4] and in data set [6] was inactive. Further, the pIC50 in data set [5] was less than 4.12.

As for `CCCCC(NC(=O)[C@H](CCCCN)NC(=O)C(CCCC)NC(=O)[C@H](CO)NC(=O)[C@@H](NC(=O)[C@H](CCCCN)NC(=O)[C@@H](NC(=O)[C@H](CO)NC(=O)[C@H](CCC(N)=O)NC(=O)[C@H](CCC(=O)O)NC(=O)[C@@H](NC(=O)[C@H](CCCCN)NC(=O)[C@@H]1CCCN1C(C)=O)[C@@H](C)CC)C(C)C)[C@@H](C)CC)C(N)=O` (some centres undefined) (Ac-PKIEQSVKIS[ξNle]K[ξNle]-NH2), the result in data set [4] and in data set [6] was inactive. In addition, the pIC50 in data set [5] is less than 4.12.

`CCCCC(NC(=O)[C@H](CCCCN)NC(=O)[C@H](CCCCN)NC(=O)[C@H](CO)NC(=O)[C@@H](NC(=O)CNC(=O)[C@H](CCC(=O)O)NC(=O)[C@H](CO)NC(=O)[C@H](CCC(N)=O)NC(=O)[C@@H](NC(=O)[C@@H](NC(=O)[C@H](CCCCN)NC(=O)[C@@H]1CCCN1C(C)=O)[C@@H](C)CC)[C@@H](C)CC)[C@@H](C)CC)C(N)=O` (some centres undefined) (Ac-PKIIQSEGISKK[ξNle]-NH2): the outcome in data set [4] and in data set [6] was inactive. The pIC50 in data set [5] was less than 4.12.

Ac-PKEIQSKGI-NH2: the result in data set [4] and in data set [6] was inactive. In data set [5], the pIC50 was less than 4.12.

As to Ac-PKIEQSVKI-NH2, the result in data set [4] and in data set [6] was inactive. Besides, in data set [5], the pIC50 is 4.32.
